{"source": "patent US20100204141A1", "about": "“USE OF BPP-B AS A THERAPEUTIC AGENT” (priority 2007, published 2010)", "key": {"HepG2-2.2.15 cells": {"system": "HepG2-2.2.15 cells", "assay": "Cytotoxicity (dye uptake cell viability) in the HBV assay", "type": "cell-based", "details": "test peptide 10 micrograms per ml"}, "CEM-SS cells": {"system": "CEM-SS cells", "assay": "Cytotoxicity (MTS cell viability) in the HIV-1 assay", "details": "CEM-SS cells; test peptide 10 micrograms per ml; MTS"}, "HIV-1IIIB": {"system": "HIV-1IIIB", "assay": "HIV-1 antiviral assay (CPE reduction, MTS) in CEM-SS cells", "details": "test peptide 10 micrograms per ml, 6 days post-infection"}, "Streptococcus pneumoniae": {"system": "Streptococcus pneumoniae", "assay": "Streptococcus pneumoniae assay", "type": "cell-based", "details": "Streptococcus pneumoniae growth; peptide 10 micrograms per ml", "method": "(§1) The antibacterial assay was conducted using clear, U-bottom 96-well microtiter plates. Cation-adjusted Mueller-Hinton Broth (MHB) was used for testing Streptococcus pneumoniae. The peptide of the invention (0.1 ml of each—10 micrograms per ml—) was dispensed into wells in duplicate. Then the wells were inoculated with 5×10^5 CFU/mL Streptococcus pneumoniae in 0.1 ml volume. For control purposes, each plate included 4 wells containing media without bacterial inoculum and 4 wells containing medium with inoculum but without peptide. The plates were incubated for 12 h at 37° C., and read visually 18-24 hours post-incubation. Growth control of Streptococcus pneumoniae was examined first to determine adequacy of media preparations and growth conditions. Acceptable growth is defined as ≧2 mm wide button of cells at the bottom of each sample well, or obvious turbidity in the culture supernatant. Test wells were examined and scored as positive/negative for activity. A positive score for activity is based on complete inhibition of macroscopic growth of the test Streptococcus pneumoniae."}, "[1]": {"assay": "Cytotoxicity (MTS cell viability) in the HIV-1 assay", "details": "human, CEM-SS cells (uninfected drug cytotoxicity wells)"}, "[2]": {"assay": "Cytotoxicity testing in MRC-5 cells (CellTiter 96)", "type": "cell-based, human", "details": "human, MRC-5 cells (embryonal lung fibroblasts), 6 days incubation, read-out: % Cell viability", "method": "(§2) For cytotoxicity testing, MRC-5 cells were seeded at 2,500 cells/well in 96 well plates using growth medium. […] The following day, peptide was added and tested in duplicates. After a 6 days incubation period, cell viability was measured using CellTiter 96 Solution (Promega). Plates were incubated for additional 4 hours at 37° C."}, "Pseudomonas aeruginosa": {"system": "Pseudomonas aeruginosa", "assay": "Pseudomonas aeruginosa assay", "type": "cell-based", "details": "Pseudomonas aeruginosa growth; peptide 10 micrograms per ml", "method": "as §1, with “Pseudomonas aeruginosa.” for “Streptococcus pneumoniae.”, “Pseudomonas aeruginosa” for “Streptococcus pneumoniae”"}, "MRSA": {"system": "MRSA", "assay": "Methicillin Resistant Staphylococcus Aureus (MRSA) assay", "type": "cell-based", "details": "MRSA growth; peptide 10 micrograms per ml", "method": "as §1, with “MRSA.” for “Streptococcus pneumoniae.”, “MRSA” for “Streptococcus pneumoniae”"}, "[3]": {"assay": "Cytotoxicity (dye uptake cell viability) in the HBV assay", "type": "cell-based", "details": "human, HepG2-2.2.15 cells (stable line containing HBV ayw genome), test peptide 10 micrograms per ml"}, "MRC-5 cells": {"system": "MRC-5 cells", "assay": "Cytotoxicity testing in MRC-5 cells (CellTiter 96)", "type": "cell-based, human", "details": "6 days incubation", "method": "as §2"}, "HCMV strain AD169": {"system": "HCMV strain AD169", "assay": "HCMV plaque reduction assay in MRC-5 cells", "details": "HCMV in MRC-5 cells; peptide 10 micrograms per ml; 7-10 days"}}, "note": "Square brackets hold non-standard residues; d marks the D form. Peptide text beside a SMILES is read from it. pGlu = O=C1CC[C@@H](C(=O)O)N1"}
{"smiles": "Nc1ccn([C@@H]2CS[C@H](CO)O2)c(=O)n1", "note": "[3TC]", "values": [{"measurement": "% Cell viability", "setting": "HepG2-2.2.15 cells", "value": 95.8, "unit": "%"}]}
{"smiles": "Cc1cn([C@H]2C[C@H](N=[N+]=[N-])[C@@H](CO)O2)c(=O)[nH]c1=O", "note": "[AZT]", "values": [{"measurement": "% Cell viability", "setting": "CEM-SS cells", "value": 97, "unit": "%"}, {"measurement": "% CPE reduction in HIV-1 infected CEM-SS cells", "setting": "HIV-1IIIB", "value": 99, "unit": "%"}]}
{"smiles": "CC[C@H](C)[C@H](NC(=O)[C@H](CCCCN)NC(=O)[C@@H]1CCCN1C(=O)[C@H](CCCNC(=N)N)NC(=O)[C@@H]1CCCN1C(=O)[C@@H]1CCCN1C(=O)[C@H](CC(C)C)NC(=O)CNC(=O)[C@@H]1CCC(=O)N1)C(=O)N1CCC[C@H]1C(=O)N1CCC[C@H]1C(=O)O", "note": "[Bradykinin potentiator B, Pyr-Gly-Leu-Pro-Pro-Arg-Pro-Lys-Ile-Pro-Pro-OH] ([pGlu]GLPPRPKIPP-OH)", "values": [{"measurement": "% inhibition", "setting": "Streptococcus pneumoniae", "value": 0.0, "unit": "%"}, {"measurement": "viability at 10 micrograms per ml", "setting": "[1]", "value": 100, "unit": "%"}, {"measurement": "viability at 144 h", "setting": "[2]", "value": 100, "unit": "%"}, {"measurement": "% inhibition", "setting": "Pseudomonas aeruginosa", "value": 0.0, "unit": "%"}, {"measurement": "% inhibition", "setting": "MRSA", "value": 0.0, "unit": "%"}, {"measurement": "viability at 144 h, 10 micrograms per ml", "setting": "[3]", "value": 100, "unit": "%"}]}
{"smiles": "Nc1nc(O)c2ncn(COC(CO)CO)c2n1", "note": "[Ganciclovir]", "values": [{"measurement": "% Cell viability", "setting": "MRC-5 cells", "value": 100, "unit": "%"}, {"measurement": "% plaque reduction", "setting": "HCMV strain AD169", "value": 100, "unit": "%"}]}
{"smiles": "CC(C)(C)NC(=O)[C@@H]1CN(Cc2cccnc2)CCN1C[C@@H](O)C[C@@H](Cc1ccccc1)C(=O)N[C@H]1c2ccccc2C[C@H]1O", "note": "[Indinavir]", "values": [{"measurement": "% Cell viability", "setting": "CEM-SS cells", "value": 93, "unit": "%"}, {"measurement": "% CPE reduction in HIV-1 infected CEM-SS cells", "setting": "HIV-1IIIB", "value": 100, "unit": "%"}]}
